How the values were obtained:
[1] = target: T1, mouse GPR55 (Mus musculus, UniProt Q3UJF0); experiment: [35S]-GTPγS binding, membranes of HEK293s cells transfected with mouse GPR55; assay type: biochemical; conditions: agonist mode; mean ± SEM, at least three experiments; read-out: GPR55 EC50, Mouse
T1 construct: expressed in transfected cells; host or cells: HEK293s, transient transfection; membranes prepared
Description: HEK293s cells were transiently transfected with cDNA encoding rat or mouse CB1 or GPR55 and membranes were prepared as previously described (Ryberg et al. [2007]). In short, agonist activities in [^35S]-GTPγS binding assays were determined by the addition of ligand at 30°C for 45 min in membrane buffer [50 mmol/L NaCl, 5 mmol/L MgCl2, 0.5 mmol/L EDTA, 25 mmol/L HEPES (all Sigma, Gillingham, Dorset, UK); pH 7.4] containing 0.05 μg μL^−1 of membrane protein with 0.01% BSA, 25 μmol/L guanosine 5′-diphosphate (GDP), 100 μmol/L dithiothreitol (DTT), and 0.53 nmol/L [^35S]GTPγS (PerkinElmer) in a final volume of 200 μL. Antagonist assays were performed similarly, with the addition of an EC80 concentration of CP55940 as a nonselective CB1/CB2 agonist in conjunction with the ligand to be tested. Nonspecific binding was determined in the presence of 20 μmol/L unlabeled GTPγS. The reaction was terminated by addition of ice-cold wash buffer (50 mmol/L Tris-HCl, 5 mmol/L MgCl2, 50 mmol/L NaCl; pH 7.4) followed by rapid filtration under vacuum through 96-well B-glass fiber filter plates (PerkinElmer, Waltham, Massachusetts, USA) using a Biomek FX (Beckman Coulter, Bromma, Sweden). The filter plates were dried (30 min at 50°C) before scintillation liquid (PerkinElmer) was added onto the filters and the bound radioactivity was determined using a scintillation counter (Wallac). Data were fitted with a four-parameter logistic fit using the equation y = A + (B − A)/1 + ((C/x)^D), where A is no activation, B is full activation, C is the EC50, and D is the Hill slope. All data were based on at least three independent experiments.

[2] = target: T2, mouse CB1 (Mus musculus, UniProt P47746); experiment: [35S]-GTPγS binding, membranes of HEK293s cells transfected with mouse CB1; assay type: biochemical; conditions: agonist mode; mean ± SEM, at least three experiments; read-out: CB1 EC50, Mouse
T2 construct: expressed in transfected cells; host or cells: HEK293s, transient transfection; membranes prepared
T2 sequence (P47746 whole entry): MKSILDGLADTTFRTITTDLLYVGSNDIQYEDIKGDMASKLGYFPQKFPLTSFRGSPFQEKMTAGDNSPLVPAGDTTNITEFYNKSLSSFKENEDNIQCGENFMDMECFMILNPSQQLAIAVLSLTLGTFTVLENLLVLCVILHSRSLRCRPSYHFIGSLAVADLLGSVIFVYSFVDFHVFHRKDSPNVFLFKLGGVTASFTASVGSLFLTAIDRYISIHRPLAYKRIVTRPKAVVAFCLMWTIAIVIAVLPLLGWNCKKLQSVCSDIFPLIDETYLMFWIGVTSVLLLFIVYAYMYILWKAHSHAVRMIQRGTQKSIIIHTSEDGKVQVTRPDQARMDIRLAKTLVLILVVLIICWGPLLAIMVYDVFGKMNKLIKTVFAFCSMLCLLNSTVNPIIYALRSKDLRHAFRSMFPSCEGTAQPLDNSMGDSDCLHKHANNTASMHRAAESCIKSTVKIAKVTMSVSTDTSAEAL
Description: (§1) Antagonist assays were performed similarly, with the addition of an EC80 concentration of CP55940 as a nonselective CB1/CB2 agonist in conjunction with the ligand to be tested. Nonspecific binding was determined in the presence of 20 μmol/L unlabeled GTPγS. The reaction was terminated by addition of ice-cold wash buffer (50 mmol/L Tris-HCl, 5 mmol/L MgCl2, 50 mmol/L NaCl; pH 7.4) followed by rapid filtration under vacuum through 96-well B-glass fiber filter plates (PerkinElmer, Waltham, Massachusetts, USA) using a Biomek FX (Beckman Coulter, Bromma, Sweden). The filter plates were dried (30 min at 50°C) before scintillation liquid (PerkinElmer) was added onto the filters and the bound radioactivity was determined using a scintillation counter (Wallac). Data were fitted with a four-parameter logistic fit using the equation y = A + (B − A)/1 + ((C/x)^D), where A is no activation, B is full activation, C is the EC50, and D is the Hill slope. All data were based on at least three independent experiments.

[3] = target: T3, rat CB1 (Rattus norvegicus, UniProt P20272); experiment: [35S]-GTPγS binding, membranes of HEK293s cells transfected with rat CB1; assay type: biochemical; conditions: agonist mode; mean ± SEM, at least three experiments; read-out: CB1 EC50, Rat
T3 construct: expressed in transfected cells; host or cells: HEK293s, transient transfection; membranes prepared
T3 sequence (P20272 whole entry): as the sequence (P47746 whole entry) above, with D95E counted along it
Description: as §1

[4] = test system: conscious SHR; experiment: Blood pressure and heart rate responses in conscious hypertensive rats (SHR)
Description: Following anesthesia with isoflurane (4% in air followed by 2% during surgery) with supplemental Romefen® (10 mg kg^−1 s.c.; Merial SAS, Lyon, France) for analgesia, a polyethylene catheter (PE10) was inserted into the abdominal aorta, proximal to the kidneys, for BP recording, and a silicon catheter (SEDAT, Irigny, France) was inserted into the jugular vein for drug administration. Both catheters were tunneled subcutaneously to the neck region and anchored to an inert button. Immediately after completion of surgery the rats were connected to a tethered swivel system with a continuous intra-arterial infusion (700 μL h^−1) of 0.9% NaCl containing melagatran (10 mg L^−1) in order to keep the arterial line open. The anesthetic and surgical procedures for the CB1^−/−, GPR55^−/−, and WT mice used for the studies in conscious animals were identical to those in the rat, with the exception that the arterial catheter was placed in the descending aorta via the carotid artery. Following the completion of surgery, the animals were allowed to recover for 24 h with free access to food and water.
In order to take account of any vehicle responses and variations in the time course of the responses to the various cannabinoid ligands, a standard approach was adopted to measuring the BP responses in all experimental models. […] All drug responses were compared directly with the vehicle responses to determine the exact magnitude of the response to the ligand.

[5] = test system: anesthetized Sprague–Dawley (SD) rats; experiment: Hemodynamic responses (MABP, HR) in anesthetized normotensive rats; assay type: in vivo, rat; conditions: O-1602 5–100 ng kg−1 i.v.
Description: (§2) All experiments performed under terminal anesthesia were carried out following approval by Robert Gordon University Animal Ethics Panel. Anesthesia was induced in male SD rats (200–300 g) by sodium pentobarbital [60 mg kg^−1 intraperitoneal (i.p.) injection]. Male/female WT and GPR55^−/− mice (25–35 g) were anesthetized with a mixture of ketamine (120 mg kg^−1) and xylazine (16 mg kg^−1) via i.p. injection. For both species the trachea was cannulated to allow artificial respiration with room air when required (54 strokes min^−1 and tidal volume 1.5 mL 100 g^−1 for rats; 120 strokes min^−1 and tidal volume 100 μL 10 g^−1 for mice) and the left carotid artery and right jugular vein were cannulated for the measurement of arterial BP (MLT844 Physiological Pressure Transducer; AD Instruments, Oxford, UK) and drug administration, respectively. Core temperature was monitored continuously and maintained at 37–38°C with the aid of a Vetcare heated pad (Harvard Apparatus Ltd., Boston, Massachusetts, USA). Anesthesia was monitored by foot pinch reflex and maintained throughout by administration of additional doses of anesthetic (rats: 3–4 mg kg^−1 of sodium pentobarbital salt i.v.; mice: 50 μL 25 g^−1of ketamine/xylazine i.p.) every 40 min, or as required. […] Heart rate (HR) was calculated from the ECG and recorded throughout the entire experimental period. After a stabilization period of approximately 15 min dose–response experiments were carried out as described below.
(§3) As a preliminary assessment of the effects of ACEA on arterial BP, a single bolus intravenous dose (3 mg kg^−1; selected from the literature as a dose known to produce a depressor response) was given to anesthetized rats. […] The time interval between drug administrations was 10–15 min to allow BP values to return to predrug values.

[6] = test system: anesthetized WT and GPR55−/− mice; experiment: Hemodynamic responses (MABP, HR) in anesthetized WT and GPR55−/− mice; assay type: in vivo, mouse; conditions: O-1602 5–100 ng kg−1 i.v.; WT mice
Description: as §2, §3

[7] = O-1602 5 mg kg−1, +AM281 (10 mg kg−1), metoprolol pretreated
[8] = O-1602 5 mg kg−1, +CBD (5 mg kg−1), metoprolol pretreated
[9] = O-1602 5 mg kg−1, +CBD and AM281, metoprolol pretreated
[10] = O-1602 10 mg kg−1, +AM281 (10 mg kg−1), metoprolol pretreated
[11] = O-1602 10 mg kg−1, +CBD (5 mg kg−1), metoprolol pretreated
[12] = O-1602 10 mg kg−1, +CBD and AM281, metoprolol pretreated
[13] = O-1602 10 mg kg−1, Control, metoprolol pretreated
[14] = O-1602 20 mg kg−1, +AM281 (10 mg kg−1), metoprolol pretreated
[15] = O-1602 20 mg kg−1, +CBD (5 mg kg−1), metoprolol pretreated
[16] = O-1602 20 mg kg−1, +CBD and AM281, metoprolol pretreated
[17] = O-1602 20 mg kg−1, Control, metoprolol pretreated

T1 sequence (Q3UJF0 whole entry): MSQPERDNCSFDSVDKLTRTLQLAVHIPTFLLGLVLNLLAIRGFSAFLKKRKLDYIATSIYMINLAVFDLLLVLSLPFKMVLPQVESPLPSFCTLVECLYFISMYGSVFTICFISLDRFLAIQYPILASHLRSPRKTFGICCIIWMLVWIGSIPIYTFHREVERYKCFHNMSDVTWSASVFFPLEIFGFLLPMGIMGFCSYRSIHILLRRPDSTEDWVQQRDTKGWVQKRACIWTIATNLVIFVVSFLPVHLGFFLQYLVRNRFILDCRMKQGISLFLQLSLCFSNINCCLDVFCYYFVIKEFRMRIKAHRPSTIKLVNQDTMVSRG

## C=C(C)[C@@H]1CCC(C)=C[C@H]1c1c(C)cc(O)cc1O [O-1602]
[1]
  EC50: 0.012 ± 0.004 µM
[2]
  EC50: > 30 µM
[3]
  EC50: > 30 µM
[4]; [7]
  HR tachycardic response – area under the curve: 39 ± 11 arbitrary units
  MABP depressor response - area above the curve: 196 ± 44 arbitrary units
[4]; [8]
  HR tachycardic response – area under the curve: 68 ± 11 arbitrary units
  MABP depressor response - area above the curve: 189 ± 32 arbitrary units
[4]; [9]
  HR tachycardic response – area under the curve: 53 ± 22 arbitrary units
  MABP depressor response - area above the curve: 41 ± 17 arbitrary units
[4]; O-1602 5 mg kg−1, Control, metoprolol 10 mg kg−1 i.v. pretreated
  MABP depressor response - area above the curve: 59 ± 21 arbitrary units
[4]; O-1602 5 mg kg−1, Control, metoprolol pretreated
  HR tachycardic response – area under the curve: 61 ± 24 arbitrary units
[4]; [10]
  HR tachycardic response – area under the curve: 40 ± 12 arbitrary units
  MABP depressor response - area above the curve: 160 ± 31 arbitrary units
[4]; [11]
  HR tachycardic response – area under the curve: 79 ± 29 arbitrary units
  MABP depressor response - area above the curve: 23 ± 17 arbitrary units
[4]; [12]
  HR tachycardic response – area under the curve: 37 ± 32 arbitrary units
  MABP depressor response - area above the curve: 180 ± 29 arbitrary units
[4]; [13]
  HR tachycardic response – area under the curve: 18 ± 8 arbitrary units
  MABP depressor response - area above the curve: 56 ± 22 arbitrary units
[4]; [14]
  HR tachycardic response – area under the curve: 56 ± 26 arbitrary units
  MABP depressor response - area above the curve: 191 ± 30 arbitrary units
[4]; [15]
  HR tachycardic response – area under the curve: 98 ± 32 arbitrary units
  MABP depressor response - area above the curve: 73 ± 38 arbitrary units
[4]; [16]
  HR tachycardic response – area under the curve: 38 ± 16 arbitrary units
  MABP depressor response - area above the curve: 199 ± 29 arbitrary units
[4]; [17]
  HR tachycardic response – area under the curve: 72 ± 13 arbitrary units
  MABP depressor response - area above the curve: 26 ± 16 arbitrary units
[4]; O-1602 alone, three ascending doses 5, 10, and 20 mg kg−1 spaced 20 min apart
  changes in MABP or HR: did not induce any changes
[5]
  changes in MABP or HR over and above vehicle: did not produce any changes
[6]
  changes in MABP or HR over and above vehicle: did not produce any changes

Source: PMC4492759, “Pharmacological profiling of the hemodynamic effects of cannabinoid ligands: a combined in vitro and in vivo approach” (Pharmacology Research & Perspectives, 2015)
